Earlier results in patent US20160106679A1, “TABLET WITH INCREASED DRUG LOAD OF ODANACATIB” (SANDOZ AG, priority 2013, published 2016).
Where two headings read alike, the source gives them in different places.

Tests used:
[1] = highly crystalline odanacatib

- aqueous solubility [1]: low
SMILES: CC(C)(F)C[C@H](N[C@@H](c1ccc(-c2ccc(S(C)(=O)=O)cc2)cc1)C(F)(F)F)C(=O)NC1(C#N)CC1 [Odanacatib, odanacatib]
- BMD change at lumbar spine, hip and femoral neck (patients; patients treated once weekly with 20-50 mg): increases in lumbar spine, hip and femoral neck BMD
- BMD change at lumbar spine, hip and femoral neck (patients; patients treated with low doses): decreases in BMD at the same sites
